Data reported in patent US9458153B2, “Dihydroquinolizinones for the treatment and prophylaxis of hepatitis B virus infection” (Hoffmann-La Roche Inc., priority 2014, dated 2016).

Test system: HBsAg
Test: HBsAg assay (chemiluminescence immunoassay of secreted HBsAg in HepG2.2.15 culture supernatant)
Format: cell-based, HBV
Conditions: HepG2.2.15 cells, CLIA kit
In short: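 HepG2.2.15 cells, which constitutively express HBV, were seeded in duplicate and treated with three-fold serial compound dilutions at 1% DMSO final. Secreted HBsAg in culture supernatant was measured semi-quantitatively by chemiluminescence immunoassay. IC50 was extrapolated from dose-response curves.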

[1] = Hepatitis B virus, HepG2.2.15, HBsAg secretion reduced by 50% vs no drug control
[2] = HBsAg secretion reduced by 50% vs no drug control

Row | Compound | IC50 [1] | IC50 [2]
1 | COc1cc2c(cc1Cl)-c1cc(=O)c(C(=O)O)cn1C(C)C2 (stereo not shown) [Example 65, 10-chloro-9-methoxy-6-methyl-2-oxo-6,7-dihydrobenzo[a]quinolizine-3-carboxylic acid] | 0.32 µM | 
2 | COc1cc2c(cc1OC)-c1cc(=O)c(C(=O)O)cn1C(C)C2 (stereo not shown) [Example 66, 9,10-dimethoxy-6-methyl-2-oxo-6,7-dihydrobenzo[a]quinolizine-3-carboxylic acid] |  | 0.43 µM
3 | COc1cc2c(cc1OC)C(C)Cn1cc(C(=O)O)c(=O)cc1-2 (stereo not shown) [Example 69, 9,10-dimethoxy-7-methyl-2-oxo-6,7-dihydrobenzo[a]quinolizine-3-carboxylic acid] | 1.3 µM | 
4 | CCC1Cc2cc(OC)c(OC)cc2-c2cc(=O)c(C(=O)O)cn21 (stereo not shown) [Example 70, 6-ethyl-9,10-dimethoxy-2-oxo-6,7-dihydrobenzo[a]quinolizine-3-carboxylic acid] | 0.07 µM | 
5 | CC[C@@H]1Cc2cc(OC)c(OC)cc2-c2cc(=O)c(C(=O)O)cn21 [Example 71, (6R)-(+)-6-ethyl-9,10-dimethoxy-2-oxo-6,7-dihydrobenzo[a]quinolizine-3-carboxylic acid] | 0.037 µM | 
6 | CC[C@H]1Cc2cc(OC)c(OC)cc2-c2cc(=O)c(C(=O)O)cn21 [Example 72, (6S)-(−)-6-ethyl-9,10-dimethoxy-2-oxo-6,7-dihydrobenzo[a]quinolizine-3-carboxylic acid] | 12 µM | 
7 | COc1cc2c(cc1C)-c1cc(=O)c(C(=O)O)cn1C(C)C2 (stereo not shown) [Example 73, 9-methoxy-6,10-dimethyl-2-oxo-6,7-dihydrobenzo[a]quinolizine-3-carboxylic acid] | 0.14 µM | 
8 | CCOc1cc2c(cc1OCC)-c1cc(=O)c(C(=O)O)cn1C(C)C2 (stereo not shown) [Example 74, 9,10-diethoxy-6-methyl-2-oxo-6,7-dihydrobenzo[a]quinolizine-3-carboxylic acid] | 0.14 µM | 
9 | CCOc1cc2c(cc1O)-c1cc(=O)c(C(=O)O)cn1C(C)C2 (stereo not shown) [Example 75, 9-ethoxy-6-methyl-10-hydroxy-2-oxo-6,7-dihydrobenzo[a]quinolizine-3-carboxylic acid] | 1.11 µM | 
10 | CCCOc1cc2c(cc1OCCC)-c1cc(=O)c(C(=O)O)cn1CC2 [Example 77, 2-oxo-9,10-dipropoxy-6,7-dihydrobenzo[a]quinolizine-3-carboxylic acid] | 0.83 µM | 
11 | CCCc1cc2c(cc1OC)-c1cc(=O)c(C(=O)O)cn1C(CC)C2 (stereo not shown) [Example 81, 6-ethyl-10-methoxy-2-oxo-9-propyl-6,7-dihydrobenzo[a]quinolizine-3-carboxylic acid] | 0.33 µM | 
12 | COc1ccc2c(c1Cl)CC(C)n1cc(C(=O)O)c(=O)cc1-2 (stereo not shown) [Example 82, 8-chloro-9-methoxy-6-methyl-2-oxo-6,7-dihydrobenzo[a]quinolizine-3-carboxylic acid] | 5.27 µM | 
13 | COc1cc2c(c(Cl)c1OC)CC(C)n1cc(C(=O)O)c(=O)cc1-2 (stereo not shown) [Example 83, 8-chloro-9,10-dimethoxy-6-methyl-2-oxo-6,7-dihydrobenzo[a]quinolizine-3-carboxylic acid] | 5.6 µM | 
14 | CCCOc1cc2c(cc1OC)CC(C)n1cc(C(=O)O)c(=O)cc1-2 (stereo not shown) [Example 87, 9-methoxy-6-methyl-2-oxo-10-propoxy-6,7-dihydrobenzo[a]quinolizine-3-carboxylic acid] | 1.55 µM | 
15 | CCc1cc2c(cc1OC)CC(CC)n1cc(C(=O)O)c(=O)cc1-2 (stereo not shown) [Example 88, 6,10-diethyl-9-methoxy-2-oxo-6,7-dihydrobenzo[a]quinolizine-3-carboxylic acid] | 0.02 µM | 
16 | CCC1Cc2cc(OC)c(C3CC3)cc2-c2cc(=O)c(C(=O)O)cn21 (stereo not shown) [Example 89, 10-cyclopropyl-6-ethyl-9-methoxy-2-oxo-6,7-dihydrobenzo[a]quinolizine-3-carboxylic acid] |  | 0.008 µM
17 | CCC1Cc2cc(Br)c(OC)cc2-c2cc(=O)c(C(=O)O)cn21 (stereo not shown) [Example 92, 9-bromo-6-ethyl-10-methoxy-2-oxo-6,7-dihydrobenzo[a]quinolizine-3-carboxylic acid] | 0.23 µM | 
18 | CCC1Cc2cc(C#N)c(OC)cc2-c2cc(=O)c(C(=O)O)cn21 (stereo not shown) [Example 93, 9-cyano-6-ethyl-10-methoxy-2-oxo-6,7-dihydrobenzo[a]quinolizine-3-carboxylic acid] | 0.19 µM | 
19 | CCOc1ccc(Br)c2c1-c1cc(=O)c(C(=O)O)cn1C(CC)C2 (stereo not shown) [Example 94, 8-bromo-11-ethoxy-6-ethyl-2-oxo-6,7-dihydrobenzo[a]quinolizine-3-carboxylic acid] | 0.41 µM | 
20 | CCOc1ccc(C#N)c2c1-c1cc(=O)c(C(=O)O)cn1C(CC)C2 (stereo not shown) [Example 95, 8-cyano-11-ethoxy-6-ethyl-2-oxo-6,7-dihydrobenzo[a]quinolizine-3-carboxylic acid] | 7.83 µM | 

Row | Compound | IC50 [1] | IC50 [2]
21 | CCCC1Cc2cc(OC)c(OC)cc2-c2cc(=O)c(C(=O)O)cn21 (stereo not shown) [Example 96, 9,10-dimethoxy-2-oxo-6-propyl-6,7-dihydrobenzo[a]quinolizine-3-carboxylic acid] | 0.049 µM | 
22 | COc1cc2c(cc1OC)-c1cc(=O)c(C(=O)O)cn1C(C1CC1)C2 (stereo not shown) [Example 97, 6-cyclopropyl-9,10-dimethoxy-2-oxo-6,7-dihydrobenzo[a]quinolizine-3-carboxylic acid] | 0.07 µM | 
23 | COc1cc2c(cc1OC)-c1cc(=O)c(C(=O)O)cn1C(C(C)C)C2 (stereo not shown) [Example 98, 6-isopropyl-9,10-dimethoxy-2-oxo-6,7-dihydrobenzo[a]quinolizine-3-carboxylic acid] |  | 0.016 µM
24 | COc1cc2c(cc1OC)-c1cc(=O)c(C(=O)O)cn1C(CC(C)C)C2 (stereo not shown) [Example 101, 6-isobutyl-9,10-dimethoxy-2-oxo-6,7-dihydrobenzo[a]quinolizine-3-carboxylic acid] |  | 0.045 µM
25 | COCCOc1cc2c(cc1Cl)-c1cc(=O)c(C(=O)O)cn1C(CC(C)C)C2 (stereo not shown) [Example 104, 10-chloro-6-isobutyl-9-(2-methoxyethoxy)-2-oxo-6,7-dihydrobenzo[a]quinolizine-3-carboxylic acid] |  | 0.018 µM
26 | COCCOc1cc2c(cc1Cl)-c1cc(=O)c(C(=O)O)cn1C(C(C)C)C2 (stereo not shown) [Example 107, 10-chloro-6-isopropyl-9-(2-methoxyethoxy)-2-oxo-6,7-dihydrobenzo[a]quinolizine-3-carboxylic acid] |  | 0.012 µM
27 | COCCOc1cc2c(cc1F)-c1cc(=O)c(C(=O)O)cn1C(C(C)C)C2 (stereo not shown) [Example 110, 10-fluoro-6-isopropyl-9-(2-methoxyethoxy)-2-oxo-6,7-dihydrobenzo[a]quinolizine-3-carboxylic acid] | 0.052 µM | 
28 | COCCOc1cc(Cl)c2c(c1)CC(C(C)C)n1cc(C(=O)O)c(=O)cc1-2 (stereo not shown) [Example 111, 11-chloro-6-isopropyl-9-(2-methoxyethoxy)-2-oxo-6,7-dihydrobenzo[a]quinolizine-3-carboxylic acid] | 0.04 µM | 
29 | CCC1Cc2cc(C)c(C)cc2-c2cc(=O)c(C(=O)O)cn21 (stereo not shown) [Example 112, 6-ethyl-9,10-dimethyl-2-oxo-6,7-dihydrobenzo[a]quinolizine-3-carboxylic acid] | 0.14 µM | 
30 | CCC1Cc2c(ccc(C)c2C)-c2cc(=O)c(C(=O)O)cn21 (stereo not shown) [Example 113, 6-ethyl-8,9-dimethyl-2-oxo-6,7-dihydrobenzo[a]quinolizine-3-carboxylic acid] | 0.64 µM | 
31 | COc1cc2c(cc1OC)-c1cc(=O)c(C(=O)O)cn1C(C(F)(F)F)C2 (stereo not shown) [Example 114, 9,10-dimethoxy-2-oxo-6-(trifluoromethyl)-6,7-dihydrobenzo[a]quinolizine-3-carboxylic acid] | 0.15 µM | 
32 | CCC1Cc2cc(OCc3ccccc3)c(C)cc2-c2cc(=O)c(C(=O)O)cn21 (stereo not shown) [Example 115, 9-benzyloxy-6-ethyl-10-methyl-2-oxo-6,7-dihydrobenzo[a]quinolizine-3-carboxylic acid] |  | 0.029 µM
33 | COCCCOc1cc2c(cc1Cl)-c1cc(=O)c(C(=O)O)cn1C(C(C)C)C2 (stereo not shown) [Example 120, 10-chloro-6-isopropyl-9-(3-methoxypropoxy)-2-oxo-6,7-dihydrobenzo[a]quinolizine-3-carboxylic acid] |  | 0.002 µM
34 | COc1cc2c(cc1OCC(F)(F)F)CC(C(C)C)n1cc(C(=O)O)c(=O)cc1-2 (stereo not shown) [Example 126, 6-isopropyl-10-methoxy-2-oxo-9-(2,2,2-trifluoroethoxy)-6,7-dihydrobenzo[a]quinolizine-3-carboxylic acid] |  | 0.008 µM
35 | COCCCOc1cc2c(cc1OC)-c1cc(=O)c(C(=O)O)cn1C(C(C)(C)C)C2 (stereo not shown) [Example 131, 6-tert-butyl-10-methoxy-9-(3-methoxypropoxy)-2-oxo-6,7-dihydrobenzo[a]quinolizine-3-carboxylic acid] |  | 0.001 µM
36 | COCCOc1cc2c(cc1OC)-c1cc(=O)c(C(=O)O)cn1C(C1(C)CC1)C2 (stereo not shown) [Example 134, 10-methoxy-9-(2-methoxyethoxy)-6-(1-methylcyclopropyl)-2-oxo-6,7-dihydrobenzo[a]quinolizine-3-carboxylic acid] |  | 0.007 µM
37 | COCCCOc1cc2c(c(Cl)c1F)-c1cc(=O)c(C(=O)O)cn1C(C(C)C)C2 (stereo not shown) [Example 137, 11-chloro-10-fluoro-6-isopropyl-9-(3-methoxypropoxy)-2-oxo-6,7-dihydrobenzo[a]quinolizine-3-carboxylic acid] |  | 0.015 µM
38 | COCCCOc1cc2c(cc1F)-c1cc(=O)c(C(=O)O)cn1C(C(C)C)C2 (stereo not shown) [Example 140, 10-fluoro-6-isopropyl-9-(3-methoxypropoxy)-2-oxo-6,7-dihydrobenzo[a]quinolizine-3-carboxylic acid] | 0.031 µM | 
39 | COc1cc2c(cc1OCC(F)(F)CO)CC(C(C)(C)C)n1cc(C(=O)O)c(=O)cc1-2 (stereo not shown) [Example 141, 6-tert-butyl-9-(2,2-difluoro-3-hydroxy-propoxy)-10-methoxy-2-oxo-6,7-dihydrobenzo[a]quinolizine-3-carboxylic acid] | 0.007 µM | 
40 | COc1cc2c(cc1OCC(C)(C)CO)CC(C(C)C)n1cc(C(=O)O)c(=O)cc1-2 (stereo not shown) [Example 144, 9-(3-hydroxy-2,2-dimethyl-propoxy)-6-isopropyl-10-methoxy-2-oxo-6,7-dihydrobenzo[a]quinolizine-3-carboxylic acid] |  | 0.026 µM
